Test results from patent US20100298141A1, “SUBSTITUTED PYRIDINE N-OXIDE HERBICIDES” (E. I. DU PONT DE NEMOURS AND COMPANY, priority 2007, published 2010).

Columns and labels:
rice = assay: Test C flooded paddy test; format: in vivo, Oryza sativa; details: Flood
How it was run: (§1)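 Compound was added to standing water 3 cm above soil, flood maintained, and plants held in a greenhouse before visual scoring against controls at 13 to 15 days.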

umbrella sedge = assay: Test C flooded paddy test; format: in vivo, Cyperus difformis; details: Flood
How it was run: as §1

lambsquarters = assay: Test C pre-/postemergence test; format: in vivo, Chenopodium album
How it was run: (§2)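 Test chemicals were formulated with surfactant in a non-phytotoxic solvent and sprayed both on freshly planted seeds (preemergence) and on 1- to 4-leaf plants of 2–18 cm (postemergence). Flooded-paddy pots received compound directly into 3 cm of standing water, maintained for the test.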

crabgrass = assay: Test C pre-/postemergence test; format: in vivo, Digitaria sanguinalis
How it was run: as §2

eastern black nightshade = assay: Test C pre-/postemergence test; format: in vivo, Solanum ptycanthum
How it was run: as §2

morningglory = assay: Test A pre-/postemergence greenhouse test; format: in vivo, Ipomoea spp.; details: for Plant response rating, Morningglory: 0 to 100 scale where 0 is no effect and 100 is complete control; for Morningglory plant response rating: 0 to 100 scale
How it was run: (§3)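 Untreated controls served as the reference for visual injury ratings taken about ten days after spraying. The non-phytotoxic solvent/surfactant formulation was applied preemergence to seeded loam and sand and postemergence to plants two to ten cm high.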

giant foxtail = assay: Test A pre-/postemergence greenhouse test; format: in vivo, Setaria faberi; details: for Plant response rating, Foxtail, Giant: 0 to 100 scale where 0 is no effect and 100 is complete control; for Foxtail, Giant plant response rating: 0 to 100 scale
How it was run: as §3

barnyardgrass = assay: Test A pre-/postemergence greenhouse test; format: in vivo, Echinochloa crus-galli; details: for Plant response rating, Barnyardgrass: 0 to 100 scale where 0 is no effect and 100 is complete control; for Barnyardgrass plant response rating: 0 to 100 scale
How it was run: as §3

wheat [1] = assay: Test C pre-/postemergence test; format: in vivo, Triticum aestivum
How it was run: as §2

corn = assay: Test A pre-/postemergence greenhouse test; format: in vivo, Zea mays; details: for Plant response rating, Corn: 0 to 100 scale where 0 is no effect and 100 is complete control; for Corn plant response rating: 0 to 100 scale
How it was run: as §3

wheat [2] = assay: Test A pre-/postemergence greenhouse test; format: in vivo, Triticum aestivum; details: for Plant response rating, Wheat: 0 to 100 scale where 0 is no effect and 100 is complete control; for Wheat plant response rating: 0 to 100 scale
How it was run: as §3

[3] = tested on: common (oilseed) sunflower; assay: Test C pre-/postemergence test; format: in vivo, Helianthus annuus
How it was run: as §2

Goosegrass = assay: Test C pre-/postemergence test; format: in vivo, Eleusin indica
How it was run: as §2

redroot pigweed = assay: Test A pre-/postemergence greenhouse test; format: in vivo, Amaranthus retroflexus; details: for Plant response rating, Pigweed: 0 to 100 scale where 0 is no effect and 100 is complete control; for Pigweed plant response rating: 0 to 100 scale
How it was run: as §3

Surinam grass = assay: Test C pre-/postemergence test; format: in vivo, Brachiaria decumbens
How it was run: as §2

pigweed = assay: Test C pre-/postemergence test; format: in vivo, Amaranthus retroflexus
How it was run: as §2

bermudagrass = assay: Test C pre-/postemergence test; format: in vivo, Cynodon dactylon
How it was run: as §2

[4] = 62 g ai/ha, scale 0 to 100 (0 no effect, 100 complete control)
[5] = 250 g ai/ha, scale 0 to 100, 0 no effect, 100 complete control, 13 to 15 days
[6] = 62 g ai/ha, Preemergence, scale 0 to 100
[7] = 125 g ai/ha, preemergence, scale 0 (no effect) to 100 (complete control)
[8] = Postemergence, 62 g ai/ha, scale 0 to 100, 0 no effect, 100 complete control
[9] = Postemergence, 125 g ai/ha, scale 0 to 100, 0 no effect, 100 complete control
[10] = Postemergence, 250 g ai/ha, scale 0 to 100, 0 no effect, 100 complete control
[11] = Preemergence, 31 g ai/ha, scale 0 to 100 (0 no effect, 100 complete control)
[12] = preemergence, 250 g ai/ha, scale 0 (no effect) to 100 (complete control)
[13] = Postemergence, 500 g ai/ha, 0 is no effect, 100 is complete control
[14] = Preemergence, 125 g ai/ha, 0 no effect, 100 complete control

For `Cn1nc(C(F)(F)F)c(C[S+]([O-])c2ccc(F)c[n+]2[O-])c1OC(F)F` (centres unmarked) [Compound 58], the “Plant response rating, Rice” value (rice; [4]) was 40, the “Plant response rating, Rice” value (rice; [5]) was 65 and the “Plant response rating, Sedge, Umbrella” value (umbrella sedge; [4]) was 80. The “Plant response rating, Sedge, Umbrella” value (umbrella sedge; [5]) was 80, the “Lambsquarters plant response rating” value (lambsquarters; [6]) was 100 and the “Lambsquarters plant response rating” value (lambsquarters; [7]) was 100. The “Plant response rating (0 to 100), Lambsquarters” value (lambsquarters; Postemergence, 31 g ai/ha) was 0, the “Plant response rating, Lambsquarters” value (lambsquarters; [8]) was 0 and the “Plant response rating, Lambsquarters” value (lambsquarters; [9]) was 0. The “Plant response rating, Lambsquarters” value (lambsquarters; [10]) was 30, the “Plant response rating, Lambsquarters” value (lambsquarters; [11]) was 70 and the “Lambsquarters plant response rating” value (lambsquarters; [12]) was 100. The “Crabgrass, Large plant response rating” value (crabgrass; [6]) was 100, the “Crabgrass, Large plant response rating” value (crabgrass; [7]) was 100 and the “Plant response rating (0 to 100), Crabgrass, Large” value (crabgrass; Postemergence, 31 g ai/ha) was 0. The “Plant response rating, Crabgrass, Large” value (crabgrass; [8]) was 0, the “Plant response rating, Crabgrass, Large” value (crabgrass; [9]) was 0 and the “Plant response rating, Crabgrass, Large” value (crabgrass; [10]) was 45. For the same molecule, the “Plant response rating, Crabgrass, Large” value (crabgrass; [11]) was 50, the “Crabgrass, Large plant response rating” value (crabgrass; [12]) was 100 and the “Nightshade plant response rating” value (eastern black nightshade; [6]) was 100. The “Nightshade plant response rating” value (eastern black nightshade; [7]) was 100, the “Plant response rating, Nightshade” value (eastern black nightshade; [11]) was 100 and the “Nightshade plant response rating” value (eastern black nightshade; [12]) was 100. The “Plant response rating, Morningglory” value (morningglory; Postemergence, 125 g ai/ha) was 70, the “Morningglory plant response rating” value (morningglory; [13]) was 90 and the “Morningglory plant response rating” value (morningglory; [14]) was 60. The “Plant response rating, Morningglory” value (morningglory; Preemergence, 500 g ai/ha) was 100, the “Plant response rating, Foxtail, Giant” value (giant foxtail; Postemergence, 125 g ai/ha) was 90 and the “Foxtail, Giant plant response rating” value (giant foxtail; [13]) was 90. For the same molecule, the “Foxtail, Giant plant response rating” value (giant foxtail; [14]) was 100, the “Plant response rating, Foxtail, Giant” value (giant foxtail; Preemergence, 500 g ai/ha) was 100 and the “Plant response rating, Barnyardgrass” value (barnyardgrass; Postemergence, 125 g ai/ha) was 80. For the same molecule, the “Barnyardgrass plant response rating” value (barnyardgrass; [13]) was 90, the “Barnyardgrass plant response rating” value (barnyardgrass; [14]) was 90 and the “Plant response rating, Barnyardgrass” value (barnyardgrass; Preemergence, 500 g ai/ha) was 90. The “Wheat plant response rating” value (wheat [1]; [6]) was 60, the “Wheat plant response rating” value (wheat [1]; [7]) was 85 and the “Plant response rating (0 to 100), Wheat” value (wheat [1]; Postemergence, 31 g ai/ha) was 0. The “Plant response rating (0 to 100), Wheat” value (wheat [1]; Postemergence, 62 g ai/ha) was 0, the “Plant response rating, Wheat” value (wheat [1]; [9]) was 20 and the “Plant response rating, Wheat” value (wheat [1]; [10]) was 60. The “Plant response rating, Wheat” value (wheat [1]; [11]) was 10, the “Wheat plant response rating” value (wheat [1]; [12]) was 90 and the “Plant response rating, Corn” value (corn; Postemergence, 125 g ai/ha) was 50. For the same molecule, the “Corn plant response rating” value (corn; [13]) was 70, the “Corn plant response rating” value (corn; [14]) was 40 and the “Plant response rating, Corn” value (corn; Preemergence, 500 g ai/ha) was 90. For the same molecule, the “Plant response rating, Wheat” value (wheat [2]; Postemergence, 125 g ai/ha) was 60, the “Wheat plant response rating” value (wheat [2]; [13]) was 70 and the “Wheat plant response rating” value (wheat [2]; [14]) was 60. The “Plant response rating, Wheat” value (wheat [2]; Preemergence, 500 g ai/ha) was 100, the “Sunflower plant response rating” value [3, 6] was 35 and the “Sunflower plant response rating” value [3, 7] was 35. For the same molecule, the “Plant response rating, Sunflower” value [3, 11] was 10, the “Sunflower plant response rating” value [3, 12] was 85 and the “Goosegrass plant response rating” value (Goosegrass; [6]) was 90. The “Goosegrass plant response rating” value (Goosegrass; [7]) was 100, the “Plant response rating (0 to 100), Goosegrass” value (Goosegrass; Postemergence, 31 g ai/ha) was 0 and the “Plant response rating, Goosegrass” value (Goosegrass; [8]) was 0. The “Plant response rating, Goosegrass” value (Goosegrass; [9]) was 5, the “Plant response rating, Goosegrass” value (Goosegrass; [10]) was 60 and the “Plant response rating, Goosegrass” value (Goosegrass; [11]) was 80. The “Goosegrass plant response rating” value (Goosegrass; [12]) was 100, the “Plant response rating, Pigweed” value (redroot pigweed; Postemergence, 125 g ai/ha) was 70 and the “Pigweed plant response rating” value (redroot pigweed; [13]) was 90. For the same molecule, the “Pigweed plant response rating” value (redroot pigweed; [14]) was 80, the “Plant response rating, Pigweed” value (redroot pigweed; Preemergence, 500 g ai/ha) was 100 and the “Surinam Grass plant response rating” value (Surinam grass; [6]) was 80. The “Surinam Grass plant response rating” value (Surinam grass; [7]) was 85, the “Plant response rating (0 to 100), Surinam Grass” value (Surinam grass; Postemergence, 31 g ai/ha) was 0 and the “Plant response rating (0 to 100), Surinam Grass” value (Surinam grass; Postemergence, 62 g ai/ha) was 0. For the same molecule, the “Plant response rating, Surinam Grass” value (Surinam grass; [9]) was 10, the “Plant response rating, Surinam Grass” value (Surinam grass; [10]) was 45 and the “Plant response rating, Surinam Grass” value (Surinam grass; [11]) was 70. The “Surinam Grass plant response rating” value (Surinam grass; [12]) was 100, the “Pigweed plant response rating” value (pigweed; [6]) was 100 and the “Pigweed plant response rating” value (pigweed; [7]) was 100. The “Plant response rating (0 to 100), Pigweed” value (pigweed; Postemergence, 31 g ai/ha) was 0, the “Plant response rating (0 to 100), Pigweed” value (pigweed; Postemergence, 62 g ai/ha) was 0 and the “Plant response rating, Pigweed” value (pigweed; [9]) was 5. The “Plant response rating, Pigweed” value (pigweed; [10]) was 10, the “Plant response rating, Pigweed” value (pigweed; [11]) was 100 and the “Pigweed plant response rating” value (pigweed; [12]) was 100. For the same molecule, the “Bermudagrass plant response rating” value (bermudagrass; 62 g ai/ha, Preemergence, scale 0 to 100 (0 no effect, 100 complete control)) was 100, the “Bermudagrass plant response rating” value (bermudagrass; [7]) was 100 and the “Plant response rating (0 to 100), Bermudagrass” value (bermudagrass; Postemergence, 31 g ai/ha) was 0. For the same molecule, the “Plant response rating, Bermudagrass” value (bermudagrass; [8]) was 0, the “Plant response rating, Bermudagrass” value (bermudagrass; [9]) was 20 and the “Plant response rating, Bermudagrass” value (bermudagrass; [10]) was 40. The “Plant response rating, Bermudagrass” value (bermudagrass; [11]) was 100 and the “Bermudagrass plant response rating” value (bermudagrass; [12]) was 100.
